Data as given in ChEMBL document CHEMBL4706513, “New insight into 20(S)-ginsenoside Rh2 against T-cell acute lymphoblastic leukemia associated with the gut microbiota and the immune system” (2020).
Activity calls are given as the source filed them.

What was measured:
Mus musculus [1] = experiment: Inhibition of intestinal inflammation in SCID/NOD mouse xenografted with human Jurkat cells assessed as increase in TGFbeta level in colon at 40 mg/kg, po administered once a day for 3 weeks by ELISA; format: functional, organism-based; details: dose 40.0 mg/kg/day
Mus musculus [2] = experiment: Inhibition of intestinal inflammation in SCID/NOD mouse xenografted with human Jurkat cells assessed as decrease in LPS level in colon at 40 mg/kg, po administered once a day for 3 weeks by ELISA; format: functional, organism-based; details: dose 40.0 mg/kg/day
Mus musculus [3] = experiment: Inhibition of intestinal inflammation in SCID/NOD mouse xenografted with human Jurkat cells assessed as decrease in TNFalpha level in colon at 40 mg/kg, po administered once a day for 3 weeks by ELISA; format: functional, organism-based; details: dose 40.0 mg/kg/day
Mus musculus [4] = experiment: Antitumour activity against human Jurkat cells xenografted in SCID/NOD mouse assessed as decrease in expression of CD45 in bone marrow at 40 mg/kg, po administered once a day for 3 weeks by immunohistochemical staining method; format: functional, organism-based; details: dose 40.0 mg/kg/day
Mus musculus [5] = experiment: Inhibition of intestinal dysbiosis in SCID/NOD mouse xenografted with human Jurkat cells assessed as decrease in ratio of Firmicutes to Bacteroidetes in cecum at 40 mg/kg, po administered once a day for 3 weeks by multiplexed 16S rRNA gene sequencing analysis; format: functional; details: dose 40 mg/kg/day
Mus musculus [6] = experiment: Induction of immune response in SCID/NOD mouse xenografted with human Jurkat cells assessed as increase in IFN-gamma level in spleen at 40 mg/kg, po administered once a day for 3 weeks by ELISA reader method; format: functional, organism-based; details: dose 40.0 mg/kg/day
Mus musculus [7] = experiment: Inhibition of intestinal inflammation in SCID/NOD mouse xenografted with human Jurkat cells assessed as decrease in IL1beta level in colon at 40 mg/kg, po administered once a day for 3 weeks by ELISA; format: functional, organism-based; details: dose 40.0 mg/kg/day
Mus musculus [8] = experiment: Induction of intestinal homeostasis in SCID/NOD mouse xenografted with human Jurkat cells assessed as reduction in crypt depth in colon at 40 mg/kg, po administered once a day for 3 weeks by AB-PAS staining based microscopic analysis; format: functional, organism-based; details: dose 40.0 mg/kg/day
Mus musculus [9] = experiment: Induction of intestinal homeostasis in SCID/NOD mouse xenografted with human Jurkat cells assessed as increase in Reg3g expression in colon at 40 mg/kg, po administered once a day for 3 weeks by Western blot analysis; format: functional, organism-based; details: dose 40.0 mg/kg/day
Mus musculus [10] = experiment: Inhibition of intestinal inflammation in SCID/NOD mouse xenografted with human Jurkat cells assessed as decrease in MYD88 expression in colon at 40 mg/kg, po administered once a day for 3 weeks by Western blot analysis; format: functional, organism-based; details: dose 40.0 mg/kg/day
Jurkat [11] = experiment: Antitumour activity against human Jurkat cells xenografted in SCID/NOD mouse assessed as decrease in expression of CD3 in bone marrow at 40 mg/kg, po administered once a day for 3 weeks by immunohistochemical staining method; format: functional, organism-based; details: dose 40.0 mg/kg/day
Jurkat [12] = experiment: Antitumour activity against human Jurkat cells xenografted in SCID/NOD mouse assessed as proportion of CD3-positive cells in peripheral blood at 40 mg/kg, po administered once a day for 3 weeks by immunophenotyping based flow cytometry method (reference value: 18.81%); format: functional; details: dose 40 mg/kg/day
Mus musculus [13] = experiment: Induction of intestinal homeostasis in SCID/NOD mouse xenografted with human Jurkat cells assessed as upregulation of secretion of IgA from B cells in colon at 40 mg/kg, po administered once a day for 3 weeks by western blot analysis; format: functional, organism-based; details: dose 40.0 mg/kg/day
Mus musculus [14] = experiment: Inhibition of intestinal dysbiosis in SCID/NOD mouse xenografted with human Jurkat cells assessed as decrease in abundance of Alistipes in cecum at 40 mg/kg, po administered once a day for 3 weeks by multiplexed 16S rRNA gene sequencing analysis; format: functional, organism-based; details: dose 40.0 mg/kg/day
Mus musculus [15] = experiment: Induction of intestinal homeostasis in SCID/NOD mouse xenografted with human Jurkat cells assessed as increase in Reg3b expression in colon at 40 mg/kg, po administered once a day for 3 weeks by Western blot analysis; format: functional, organism-based; details: dose 40.0 mg/kg/day
Mus musculus [16] = experiment: Inhibition of intestinal inflammation in SCID/NOD mouse xenografted with human Jurkat cells assessed as decrease in IL-6 level in colon at 40 mg/kg, po administered once a day for 3 weeks by ELISA; format: functional, organism-based; details: dose 40.0 mg/kg/day
Mus musculus [17] = experiment: Induction of intestinal homeostasis in SCID/NOD mouse xenografted with human Jurkat cells assessed as decrease of enlargement of epithelial cells and infiltration of inflammatory cells in the colon at 40 mg/kg, po administered once a day for 3 weeks by Hand E staining based microscopic analysis; format: functional, organism-based; details: dose 40.0 mg/kg/day
Mus musculus [18] = experiment: Inhibition of intestinal dysbiosis in SCID/NOD mouse xenografted with human Jurkat cells assessed as increase in abundance of Verrucomicrobia in cecum at 40 mg/kg, po administered once a day for 3 weeks by multiplexed 16S rRNA gene sequencing analysis; format: functional, organism-based; details: dose 40.0 mg/kg/day
Mus musculus [19] = experiment: Induction of intestinal homeostasis in SCID/NOD mouse xenografted with human Jurkat cells assessed as upregulation of ZO-1 mRNA levels in colon at 40 mg/kg, po administered once a day for 3 weeks by real time RT-PCR analysis; format: functional, organism-based; details: dose 40.0 mg/kg/day
Mus musculus [20] = experiment: Induction of intestinal homeostasis in SCID/NOD mouse xenografted with human Jurkat cells assessed as decrease in enlarged colon tissue at 40 mg/kg, po administered once a day for 3 weeks by AB-PAS staining based microscopic analysis; format: functional, organism-based; details: dose 40.0 mg/kg/day
Mus musculus [21] = experiment: Inhibition of spleen infiltration in SCID/NOD mouse xenografted with human Jurkat cells assessed as decrease in CD45 expression in spleen at 40 mg/kg, po once a day for 3 weeks by immunohistochemical staining method; format: functional, organism-based; details: dose 40.0 mg/kg/day
Mus musculus [22] = experiment: Inhibition of intestinal dysbiosis in SCID/NOD mouse xenografted with human Jurkat cells assessed as decrease in abundance of Firmicutes in cecum at 40 mg/kg, po administered once a day for 3 weeks by multiplexed 16S rRNA gene sequencing analysis; format: functional, organism-based; details: dose 40.0 mg/kg/day
Mus musculus [23] = experiment: Inhibition of intestinal inflammation in SCID/NOD mouse xenografted with human Jurkat cells assessed as decrease in TLR4 expression in colon at 40 mg/kg, po administered once a day for 3 weeks by Western blot analysis; format: functional, organism-based; details: dose 40.0 mg/kg/day
Mus musculus [24] = experiment: In vivo inhibition of mTOR phosphorylation at Ser2448 residue in spleen of SCID/NOD mouse xenografted with human Jurkat cells at 40 mg/kg, po administered once a day for 3 weeks by Western blot method; format: functional, organism-based; details: dose 40.0 mg/kg/day

CC(C)=CCC[C@](C)(O)[C@H]1CC[C@]2(C)[C@@H]1[C@H](O)C[C@@H]1[C@@]3(C)CC[C@H](O[C@@H]4O[C@H](CO)[C@@H](O)[C@H](O)[C@H]4O)C(C)(C)[C@@H]3CC[C@]12C [GINSENOSIDE RH2]
0.47: Ratio (Mus musculus [5])
5.78%: Activity (Jurkat [12])
active: inhibition (Mus musculus [1]) | inhibition (Mus musculus [2]) | inhibition (Mus musculus [3]) | Activity (Mus musculus [4]) | Activity (Mus musculus [6]) | inhibition (Mus musculus [7]) | Activity (Mus musculus [8]) | Activity (Mus musculus [9]) | inhibition (Mus musculus [10]) | Activity (Jurkat [11]) | Activity (Mus musculus [13]) | inhibition (Mus musculus [14]) | Activity (Mus musculus [15]) | inhibition (Mus musculus [16]) | Activity (Mus musculus [17]) | inhibition (Mus musculus [18]) | Activity (Mus musculus [19]) | Activity (Mus musculus [20]) | inhibition (Mus musculus [21]) | inhibition (Mus musculus [22]) | inhibition (Mus musculus [23]) | inhibition (Mus musculus [24])
